The text below walks through data of EP0847397B1, “WATER-SOLUBLE C-RING ANALOGUES OF 20 (S)-CAMPTOTHECIN” (DR. REDDY'S RESEARCH FOUNDATION, priority 1996, dated 1997).

One experiment concerns A 498. Description: NCI in vitro 60 human tumor cell line assay. Type of experiment: cell-based. The following applies: A498, A 498, RENAL CANCER, 48h, read-out: Total Growth Inhibition (TGI).
The next experiment relates to SK OV3. Description: NCI in vitro 60 human tumor cell line assay. Type of experiment: cell-based. The following applies: SK-OV-3, SK OV3, OVARIAN, 48h, read-out: Total Growth Inhibition (TGI).
The next experiment concerns HCT 116. Description: NCI in vitro 60 human tumor cell line assay. The experiment is classed as cell-based. The following applies: HCT 116, COLON CANCER, 48h, read-out: Total Growth Inhibition (TGI).
A further experiment has as its system HOP 62. Description: NCI in vitro 60 human tumor cell line assay. The experiment is classed as cell-based. The following applies: HOP 62, NSLC, 48h, read-out: Total Growth Inhibition (TGI).
The next experiment deals with 786-O. Description: NCI in vitro 60 human tumor cell line assay. Type of experiment: cell-based. As to conditions: 786-0, 786-O, RENAL CANCER, 48h, read-out: Total Growth Inhibition (TGI).
Another experiment relates to UO 31. Description: NCI in vitro 60 human tumor cell line assay. Type of experiment: cell-based. As to conditions: UO 31, RENAL, 48h, read-out: Total Growth Inhibition (TGI).
Another experiment has as its system HOP 92. Description: NCI in vitro 60 human tumor cell line assay. Type of experiment: cell-based. As to conditions: HOP 92, NSLC, 48h, read-out: Total Growth Inhibition (TGI).
Experiment [1] is described as follows: NCI in vitro 60 human tumor cell line assay. Type of experiment: cell-based. As to conditions: HCT 166, COLON CANCER, 48h, read-out: Total Growth Inhibition (TGI).
Description: (§1) Each test compound was screened against a battery of 60 human cell lines obtained from eight organs. In a typical procedure, the cell suspensions that were diluted according to the particular cell type and the expected target cell density (5000-40,000 cells per well based on cell growth characteristics) were added into 96-well microtiter plates. Inoculates were allowed a preincubation period of 24h at 37°C. for stabilization. Dilutions at twice the intended test concentrations were added at time zero in 100-µl aliquots to microtiter plate wells. Usually test compounds were evaluated at five 10-fold dilutions. The highest well concentration used in the test is 10^-4M. The cells are then incubated in the presence of drug (the test compound) for further 48h in 5% CO2 atmosphere and 100% humidity. At the end of this time, the adherent cells are fixed to the plate by means of trichloroacetic acid, and after a number of washes, the cell layer is treated with the protein stain Sulforhodamine B. The optical density which is proportional to protein mass, is then read by automated spectrophotometric plate readers at a wavelength of 515 nm. Readings are transferred to a microcomputer and final reports are generated using especially developed software.
A further experiment relates to MCF7 / ADR / RES. Description: NCI in vitro 60 human tumor cell line assay. The experiment is classed as cell-based. The following applies: MCF7 / ADR / RES, BREAST CANCER, 48h, read-out: Total Growth Inhibition (TGI).
A further experiment deals with SF 295. The experiment is described as follows: NCI in vitro 60 human tumor cell line assay. The experiment is classed as cell-based. The following applies: SF 295, CNS, 48h, read-out: Total Growth Inhibition (TGI).
Another experiment relates to COLO 205. The experiment is described as follows: NCI in vitro 60 human tumor cell line assay. The experiment is classed as cell-based. As to conditions: COLO 205, COLON CANCER, 48h, read-out: Total Growth Inhibition (TGI).
The subject of a further experiment is H 522. The experiment is described as follows: NCI in vitro 60 human tumor cell line assay. The experiment is classed as cell-based. The following applies: NCI-H522, H 522, NSLC, 48h, read-out: Total Growth Inhibition (TGI).
A further experiment concerns KM 12. The experiment is described as follows: NCI in vitro 60 human tumor cell line assay. Type of experiment: cell-based. As to conditions: KM12, KM 12, COLON CANCER, 48h, read-out: Total Growth Inhibition (TGI).
The next experiment relates to HT 29. Description: NCI in vitro 60 human tumor cell line assay. The experiment is classed as cell-based.
A further experiment has as its system RXF 393. Description: NCI in vitro 60 human tumor cell line assay. The experiment is classed as cell-based. The following applies: RXF 393, RENAL CANCER, 48h, read-out: Total Growth Inhibition (TGI).
Another experiment has as its system H 460. The experiment is described as follows: NCI in vitro 60 human tumor cell line assay. As to conditions: H 460, NSLC, 48h. The experiment is classed as cell-based.
The next experiment has as its system OVCAR 8. The experiment is described as follows: NCI in vitro 60 human tumor cell line assay. Type of experiment: cell-based. The following applies: OVCAR 8, OVARIAN, 48h, read-out: Total Growth Inhibition (TGI).
Another experiment relates to MCF 7/ ADR. The experiment is described as follows: NCI in vitro 60 human tumor cell line assay. The experiment is classed as cell-based. The following applies: MCF 7/ ADR, BREAST, 48h.
A further experiment deals with HCT 15. The experiment is described as follows: NCI in vitro 60 human tumor cell line assay. The following applies: HCT 15, COLON CANCER, 48h, read-out: Total Growth Inhibition (TGI). Type of experiment: cell-based.
A further experiment relates to H 322M. The experiment is described as follows: NCI in vitro 60 human tumor cell line assay. The experiment is classed as cell-based. As to conditions: NCI-H322M, H 322M, NSLC, 48h, read-out: Total Growth Inhibition (TGI).
A further experiment deals with H 23. The experiment is described as follows: NCI in vitro 60 human tumor cell line assay. The experiment is classed as cell-based. The following applies: NCI-H23, H 23, NSLC, 48h, read-out: Total Growth Inhibition (TGI).
The next experiment relates to H 226. The experiment is described as follows: NCI in vitro 60 human tumor cell line assay. The experiment is classed as cell-based. The following applies: NCI-H226, H 226, NSLC, 48h, read-out: Total Growth Inhibition (TGI).
The subject of another experiment is HCC 2998. Description: NCI in vitro 60 human tumor cell line assay. The experiment is classed as cell-based. As to conditions: HCC 2998, COLON CANCER, 48h.
In a further experiment the test system is MOLT 4. Description: NCI in vitro 60 human tumor cell line assay. Type of experiment: cell-based. As to conditions: MOLT 4, […], 48h, read-out: Total Growth Inhibition (TGI).
In another experiment the test system is SN12C. Description: NCI in vitro 60 human tumor cell line assay. Type of experiment: cell-based. As to conditions: RENAL CANCER, 48h, read-out: Total Growth Inhibition (TGI).
The subject of the next experiment is MDA-MB-435. Description: NCI in vitro 60 human tumor cell line assay. The experiment is classed as cell-based. As to conditions: MDA-MB-435, BREAST, 48h, read-out: Total Growth Inhibition (TGI).
For another experiment, the system named is SF 268. Description: NCI in vitro 60 human tumor cell line assay. The following applies: SF-268, 48 h, read-out: Total Growth Inhibition (TGI). Type of experiment: cell-based.
The subject of the next experiment is T 47D. Description: NCI in vitro 60 human tumor cell line assay. Type of experiment: cell-based. The following applies: T47D, T 47D, BREAST, 48h, read-out: Total Growth Inhibition (TGI).
A further experiment relates to CAKI. Description: NCI in vitro 60 human tumor cell line assay. The experiment is classed as cell-based. The following applies: CAKI, RENAL CANCER, 48h, read-out: Total Growth Inhibition (TGI).
A further experiment relates to MCF 7. The experiment is described as follows: NCI in vitro 60 human tumor cell line assay. Type of experiment: cell-based. The following applies: MCF7, MCF 7, BREAST, 48h, read-out: Total Growth Inhibition (TGI).
Another experiment concerns EKVX. The experiment is described as follows: NCI in vitro 60 human tumor cell line assay. Type of experiment: cell-based. The following applies: NSLC, 48h, read-out: Total Growth Inhibition (TGI).
The subject of the next experiment is BT 549. Description: NCI in vitro 60 human tumor cell line assay. The experiment is classed as cell-based. The following applies: BT 549, BREAST, 48h, read-out: Total Growth Inhibition (TGI).
A further experiment has as its system ACHN. Description: NCI in vitro 60 human tumor cell line assay. Type of experiment: cell-based. The following applies: RENAL CANCER, 48h, read-out: Total Growth Inhibition (TGI).
Another experiment relates to U 251. The experiment is described as follows: NCI in vitro 60 human tumor cell line assay. Type of experiment: cell-based. As to conditions: U 251, CNS, 48h, read-out: Total Growth Inhibition (TGI).
For experiment [2] the following is noted: compared with 20(RS)-camptothecin of the formula 8; cited from earlier work.
The target of the next experiment is topoisomerase I (Homo sapiens, UniProt P11387). As to conditions: result in words; cited from earlier work.
Sequence of topoisomerase I (P11387 whole entry): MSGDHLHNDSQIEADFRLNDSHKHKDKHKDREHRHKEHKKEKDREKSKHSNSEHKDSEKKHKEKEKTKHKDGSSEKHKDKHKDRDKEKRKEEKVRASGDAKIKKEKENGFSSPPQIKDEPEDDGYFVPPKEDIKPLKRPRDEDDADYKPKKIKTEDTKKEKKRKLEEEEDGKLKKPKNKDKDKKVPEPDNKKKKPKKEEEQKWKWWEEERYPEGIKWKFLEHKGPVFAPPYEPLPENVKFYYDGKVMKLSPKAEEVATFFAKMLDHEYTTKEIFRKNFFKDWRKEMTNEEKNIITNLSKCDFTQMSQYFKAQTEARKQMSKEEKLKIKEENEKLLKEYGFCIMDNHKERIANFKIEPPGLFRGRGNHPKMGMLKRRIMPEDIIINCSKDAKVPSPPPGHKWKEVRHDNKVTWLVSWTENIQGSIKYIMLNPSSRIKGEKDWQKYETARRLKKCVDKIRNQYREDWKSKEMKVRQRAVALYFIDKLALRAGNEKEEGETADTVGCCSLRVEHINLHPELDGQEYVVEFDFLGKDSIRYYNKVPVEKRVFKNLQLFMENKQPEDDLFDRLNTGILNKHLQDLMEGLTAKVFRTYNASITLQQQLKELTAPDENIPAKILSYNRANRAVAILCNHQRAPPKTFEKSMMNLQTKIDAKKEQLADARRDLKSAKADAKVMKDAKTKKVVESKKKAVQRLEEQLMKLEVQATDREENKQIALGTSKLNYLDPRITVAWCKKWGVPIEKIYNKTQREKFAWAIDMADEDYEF

Description for 786-O: (§2) Each test compound was screened against a battery of 60 human cell lines obtained from eight organs. In a typical procedure, the cell suspensions that were diluted according to the particular cell type and the expected target cell density (5000-40,000 cells per well based on cell growth characteristics) were added into 96-well microtiter plates. Inoculates were allowed a preincubation period of 24h at 37°C. for stabilization. Dilutions at twice the intended test concentrations were added at time zero in 100-µl aliquots to microtiter plate wells. Usually test compounds were evaluated at five 10-fold dilutions. The highest well concentration used in the test is 10^-4M. The cells are then incubated in the presence of drug (the test compound) for further 48h in 5% CO2 atmosphere and 100% humidity. At the end of this time, the adherent cells are fixed to the plate by means of trichloroacetic acid, and after a number of washes, the cell layer is treated with the protein stain Sulforhodamine B. The optical density which is proportional to protein mass, is then read by automated spectrophotometric plate readers at a wavelength of 515 nm.
Description for A 498: as §1
Description for ACHN: as §1
Description for BT 549: as §1
Description for CAKI: as §1
Description for COLO 205: as §1
Description for EKVX: as §1
Description for H 226: as §1
Description for H 23: as §1
Description for H 322M: as §1
Description for H 460: as §1
Description for H 522: as §1
Description for HCC 2998: as §1
Description for HCT 15: as §1
Description for KM 12: as §1
Description for MCF 7/ ADR: as §1
Description for MCF7 / ADR / RES: as §1
Description for MOLT 4: as §1
Description for OVCAR 8: as §2
Description for RXF 393: as §1
Description for SF 268: as §2
Description for SF 295: as §1
Description for SK OV3: as §2
Description for SN12C: as §1
Description for T 47D: as §1
Description for U 251: as §1
Description for UO 31: as §1

For `CC[C@@]1(O)C(=O)OCc2c1cc1n(c2=O)Cc2cc3c(CN(C)C)c(O)ccc3nc2-1` [TOPOTECAN, topotecan, reference compound], the IC (TGI) with A 498 came out at 1690 nM; with SK OV3 it was 5120 nM; with HCT 116, 2510 nM; in the experiment on HOP 62, 40 nM; in the experiment with 786-O, 120 nM; with UO 31 it was 2510 nM. The IC (TGI) was determined as 7900 nM in the experiment with HOP 92; 2510 nM in [1]; 1500 nM in the experiment with MCF7 / ADR / RES; 2180 nM with SF 295; 7940 nM in the experiment with COLO 205; 4160 nM with H 522. Besides, the IC (TGI) was 6450 nM with KM 12; > 100000 nM in the experiment on HT 29 (Homo sapiens, HT-29, 48 h, read-out: Total Growth Inhibition (TGI)); 1410 nM with RXF 393; 1200 nM in the experiment with H 460 (Homo sapiens, NCI-H460, read-out: Total Growth Inhibition (TGI)); 18200 nM in the experiment on OVCAR 8; 1500 nM with MCF 7/ ADR (Homo sapiens, NCI/ADR-RES, read-out: Total Growth Inhibition (TGI)). Further, the IC (TGI) in the experiment with HCT 15 came out at 44600 nM; in the experiment on H 322M it was 16900 nM; in the experiment on H 23, 870 nM; in the experiment on H 226, 11000 nM; with HCC 2998 (Homo sapiens, read-out: Total Growth Inhibition (TGI)), 15800 nM; in the experiment on MOLT 4 it was 1200 nM. The IC (TGI) in the experiment on SN12C was determined as 1580 nM; in the experiment on MDA-MB-435, 2500 nM; in the experiment on SF 268, 56000 nM; in the experiment with T 47D, 1800 nM; in the experiment on CAKI it was 510 nM; in the experiment with MCF 7 it was 100000 nM. The IC (TGI) with EKVX was 100000 nM; in the experiment with BT 549, > 100000 nM; in the experiment on ACHN it was 280 nM; with U 251, 2810 nM. In addition, the “Total Growth Inhibition (TGI)” value is on record as 100 μm in the experiment on HT 29, 1.20 μm in the experiment on H 460, 1.5 μm in the experiment with MCF 7/ ADR and 15.80 μm in the experiment with HCC 2998.
`CCc1c2c(nc3ccc(OC)cc13)-c1cc3c(c(=O)n1C2)COC(=O)[C@]3(N)CC` [formula 7, 7-ethyl-10-methoxycamptothecin derivative]: in experiment [2], the “in vivo antitumor activity” value is “increased in vivo antitumor activity”.
`C=C1C(=O)OCc2c1cc1n(c2=O)Cc2c-1nc1ccc(O)cc1c2CC` [formula 9, 18-noranhydrocamptothecin analogue]: the “inhibition of topoisomerase I activity” value at topoisomerase I is “potent camptothecin like inhibition of topoisomerase I activity”.
